# pIC50: −log10 of the molar value. Calls of active or inactive are those of the source. The calls are words filed in the database; no cut-off is given here.
# Tests used:
# [1] = molecular target: Smoothened (Mus musculus) (UniProt P56726); experiment: Inhibition of Smo-mediated Hh signaling in mouse Shh-light2 cells at 3 uM by luciferase reporter gene assay; conditions: Shh Light II
# [2] = molecular target: Smoothened (Mus musculus) (UniProt P56726); experiment: Inhibition of Smo-mediated Hh signaling in mouse Shh-light2 cells at 0.3 uM by luciferase reporter gene assay; conditions: Shh Light II
# C3H 10T1/2 [3] = experiment: Inhibition of SAG-induced differentiation of mouse mesenchymal pluripotent C3H10T1/2 cells to alkaline phosphatase positive oeseoblasts at 10 uM after 6 days; conditions: C3H 10T1/2, 6 days
# C3H 10T1/2 [4] = experiment: Inhibition of SAG-induced differentiation of mouse mesenchymal pluripotent C3H10T1/2 cells to alkaline phosphatase positive oeseoblasts after 6 days; conditions: C3H 10T1/2, 6 days
# [5] = molecular target: Smoothened (Mus musculus) (UniProt P56726); experiment: Inhibition of Smo-mediated Hh signaling in mouse Shh-light2 cells by luciferase reporter gene assay
# Sequence of Smoothened (Mus musculus) (P56726 whole entry, looked up): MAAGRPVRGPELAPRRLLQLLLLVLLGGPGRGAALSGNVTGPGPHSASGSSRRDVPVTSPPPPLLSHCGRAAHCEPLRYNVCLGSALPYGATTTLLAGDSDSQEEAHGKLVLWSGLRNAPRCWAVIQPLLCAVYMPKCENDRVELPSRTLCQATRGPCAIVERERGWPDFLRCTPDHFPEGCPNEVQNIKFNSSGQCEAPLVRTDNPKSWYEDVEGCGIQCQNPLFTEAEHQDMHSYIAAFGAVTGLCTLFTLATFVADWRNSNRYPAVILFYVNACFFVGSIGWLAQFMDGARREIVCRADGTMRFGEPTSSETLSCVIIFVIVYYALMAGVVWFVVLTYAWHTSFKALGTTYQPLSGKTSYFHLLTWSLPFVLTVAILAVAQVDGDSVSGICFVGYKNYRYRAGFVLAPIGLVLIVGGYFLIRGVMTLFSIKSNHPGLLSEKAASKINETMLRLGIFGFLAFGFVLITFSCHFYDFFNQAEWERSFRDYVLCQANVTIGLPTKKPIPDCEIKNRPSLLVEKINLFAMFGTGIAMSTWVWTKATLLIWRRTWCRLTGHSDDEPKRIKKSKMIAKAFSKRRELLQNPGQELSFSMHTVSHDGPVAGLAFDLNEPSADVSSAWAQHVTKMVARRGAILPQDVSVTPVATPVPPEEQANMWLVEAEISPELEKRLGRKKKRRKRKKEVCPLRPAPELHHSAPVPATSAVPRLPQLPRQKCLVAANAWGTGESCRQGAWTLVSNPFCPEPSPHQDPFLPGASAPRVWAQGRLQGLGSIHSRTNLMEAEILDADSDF
inhibition [1],inhibition [2],pIC50 (C3H 10T1/2 [4]),pIC50 [5],SMILES,inhibition at 10 µM (C3H 10T1/2 [3])
103%,40%,,,COc1ccc(C(=O)Nc2cccc(NC(=O)NC(=O)c3cc(OC)c(OC)c(OC)c3)c2)cc1,99%
3%,1%,,,COc1cc(C(=O)NC(=O)Nc2cccc(NC(=O)c3ccc4ccccc4c3)c2)cc(OC)c1OC,4%
34%,,5.39,,COc1ccc(C(=O)NC(=S)Nc2cccc(NC(=O)c3ccccc3)c2)c(OC)c1,
,,6.74,7.15,COc1cc(C(=O)NC(=N)Nc2cccc(-c3cc4ccccc4[nH]3)c2)cc(OC)c1OC,
99%,26%,,,COc1cc(C(=O)NC(=O)Nc2cccc(NC(=O)c3ccc(-c4ccccc4)cc3)c2C)cc(OC)c1OC,104%
,,7.52,7.48,COc1cc(C(=O)NC(=N)Nc2cccc(NC(=O)c3ccc(-c4ccc(F)cc4)cc3)c2)cc(OC)c1OC,
100%,72%,6.22,,COc1cc(C(=O)NC(=S)Nc2ccc(C)c(NC(=O)c3cccc(-c4ccccc4)c3)c2)cc(OC)c1OC,97%
,,6.70,6.66,COc1cc(C(=O)NC(=N)Nc2cccc(NC(=O)c3ccc(N4CCOCC4)cc3)c2)cc(OC)c1OC,
78%,,,,COc1cc(C(=O)NC(=S)Nc2cccc(NC(=O)Nc3ccccc3)c2)cc(OC)c1OC,104%
90%,,6.55,6.74,COc1cc(C(=O)NC(=S)Nc2cccc(-c3cc4ccccc4[nH]3)c2)cc(OC)c1OC,102%
,,6.41,6.05,COc1cc(C(=O)NC(=N)Nc2cccc(-n3ccc4ccccc43)c2)cc(OC)c1OC,
99%,,5.70,,COc1cccc(C(=O)Nc2cccc(NC(=S)NC(=O)c3cc(OC)c(OC)c(OC)c3)c2)c1,89%
69%,,,,COc1cc(C(=O)NC(=S)Nc2cccc(-n3ccc4ccccc43)c2)cc(OC)c1OC,92%
84%,,5.72,,COc1cc(OC)cc(C(=O)NC(=S)Nc2cccc(NC(=O)c3ccccc3)c2)c1,
90%,,,,COc1cc(C(=O)NC(=S)Nc2cccc(NC(=O)c3ccc(N4CCOCC4)cc3)c2)cc(OC)c1OC,55%
62%,4%,,,COc1cc(C(=O)NC(=O)Nc2cccc(NC(=O)C(C)C)c2)cc(OC)c1OC,99%
37%,,,,COc1cc(C(=O)NC(=S)Nc2cccc(NC(=O)c3cc(OC)c(OC)c(OC)c3)c2)cc(OC)c1OC,74%
53%,,,,COc1cc(C(=O)NC(=S)Nc2cccc(NC(=O)c3ccco3)c2)cc(OC)c1OC,67%
92%,,,5.96,COc1cc(C(=O)NC(=S)Nc2cccc(-c3cn4ccsc4n3)c2)cc(OC)c1OC,98%
,,6.36,6.80,COc1cc(C(=O)NC(=N)Nc2ccc(Cl)c(C(=O)Nc3ccccc3)c2)cc(OC)c1OC,

inhibition [1],inhibition [2],pIC50 (C3H 10T1/2 [4]),pIC50 [5],SMILES,inhibition at 10 µM (C3H 10T1/2 [3])
93%,,6.26,6.09,COc1cc(C(=O)NC(=S)Nc2cccc(-c3cn4ccccc4n3)c2)cc(OC)c1OC,94%
84%,,,,COc1cc(C(=O)NC(=S)Nc2cccc(-n3cnc4ccccc43)c2)cc(OC)c1OC,60%
,,7.96,7.85,COc1cc(C(=O)NC(=N)Nc2ccc(C)c(NC(=O)c3ccc(-c4ccc(F)cc4)cc3)c2)cc(OC)c1OC,
99%,,6.10,,COc1cc(C(=O)NC(=S)Nc2cccc(NC(=O)c3ccc(Cl)cc3)c2)cc(OC)c1OC,96%
33%,1%,,,COc1ccc(NC(=S)NC(=O)c2cc(OC)c(OC)c(OC)c2)cc1NC(=O)c1ccccc1,8%
99%,,6.22,,CCOc1c(OC)cc(C(=O)NC(=S)Nc2cccc(NC(=O)c3ccccc3)c2)cc1OC,
,,6.43,6.43,COc1cc(C(=O)NC(=N)Nc2ccc(Cl)c(NC(=O)c3ccccc3)c2)cc(OC)c1OC,
48%,9%,,,COc1cc(C(=O)NC(=S)Nc2cccc(NC(=O)c3ccc(-c4ccccc4)cc3)c2C)cc(OC)c1OC,7%
98%,7%,,,COc1cc(C(=O)NC(=S)Nc2ccc(Cl)c(C(=O)Nc3ccc(Cl)cc3)c2)cc(OC)c1OC,96%
49%,,5.70,,COc1ccccc1C(=O)Nc1cccc(NC(=S)NC(=O)c2cc(OC)c(OC)c(OC)c2)c1,99%
,88%,6.74,,COc1cc(C(=O)NC(=N)Nc2ccc(C)c(NC(=O)c3ccccc3)c2)cc(OC)c1OC,
24%,13%,,,CCOc1cc(C(=O)NC(=O)Nc2cccc(NC(=O)c3ccccc3)c2)cc(OCC)c1OCC,45%
92%,4%,,,COc1cc(C(=O)NC(=S)Nc2cc(NC(=O)c3ccccc3)ccc2F)cc(OC)c1OC,97%
,,6.59,6.96,COc1cc(C(=O)NC(=N)Nc2ccc(C)c(NC(=O)c3cccc(-c4ccccc4)c3)c2)cc(OC)c1OC,
93%,,5.80,,COc1ccc(C(=O)Nc2cccc(NC(=S)NC(=O)c3cc(OC)c(OC)c(OC)c3)c2)cc1,85%
14%,,,,COc1cc(C(=O)NC(=S)Nc2cccc(NC(=O)C3CCCCC3)c2)cc(OC)c1OC,26%
54%,2%,,,COc1cc(C(=O)NC(=S)Nc2cccc(NC(=O)c3ccccc3)c2C)cc(OC)c1OC,44%
71%,,,,COc1cc(C(=O)NC(=S)Nc2cccc(NC(=O)Nc3ccc(-c4ccccc4)cc3)c2)cc(OC)c1OC,91%
66%,,5.60,,COc1cc(C(=O)NC(=S)Nc2cccc(NC(=O)c3ccccc3Cl)c2)cc(OC)c1OC,80%
100%,,6.10,,CCOc1cc(C(=O)NC(=S)Nc2cccc(NC(=O)c3ccccc3)c2)cc(OCC)c1OCC,

inhibition [1],inhibition [2],pIC50 (C3H 10T1/2 [4]),pIC50 [5],SMILES,inhibition at 10 µM (C3H 10T1/2 [3])
96%,6%,,,COc1cc(C(=O)NC(=O)Nc2cccc(NC(=O)c3ccc(Cl)cc3)c2)cc(OC)c1OC,95%
13%,,,,COc1cc(C(=O)NC(=S)Nc2cccc(NC(=O)c3cccs3)c2)cc(OC)c1OC,60%
92%,,5.96,,COc1cc(C(=O)NC(=S)Nc2cccc(NC(=O)c3ccccc3)c2)cc2c1OCO2,
98%,21%,,,COc1cc(C(=O)NC(=S)Nc2ccc(F)c(NC(=O)c3ccccc3)c2)cc(OC)c1OC,96%
64%,,,,COc1cc(C(=O)NC(=S)Nc2cccc(NC(=O)c3cccc4ccccc34)c2)cc(OC)c1OC,63%
6%,,,,COc1cc(C(=O)NC(=S)Nc2cccc(NC(=O)C(C)C)c2)cc(OC)c1OC,6%
97%,,6.85,7.00,COc1cc(C(=O)NC(=S)Nc2cccc(NC(=O)c3ccc(-c4ccc(F)cc4)cc3)c2)cc(OC)c1OC,95%
24%,,,,COc1cc(C(=O)NC(=S)Nc2cccc(NC(=O)c3ccc4ccccc4c3)c2)cc(OC)c1OC,59%
2%,1%,,,COc1cc(C(=O)NC(=O)Nc2cccc(NC(=O)c3ccccc3)c2)cc2c1OCO2,32%
100%,,6.10,,CCOc1cc(C(=O)NC(=S)Nc2cccc(NC(=O)c3ccccc3)c2)cc(OC)c1OCC,
,,6.89,7.15,COc1cc(C(=O)NC(=N)Nc2ccc(Cl)c(NC(=O)c3ccc(-c4ccccc4)cc3)c2)cc(OC)c1OC,
71%,,,,COc1ccc(C(=O)NC(=S)Nc2cccc(NC(=O)c3ccccc3)c2)cc1OC,45%
67%,,,,COc1cc(C(=O)NC(=S)Nc2cccc(NC(=O)c3ccncc3)c2)cc(OC)c1OC,82%
89%,,7.10,7.05,COc1cc(C(=O)NC(=S)Nc2cccc(NC(=O)c3ccc(-c4ccccc4)cc3)c2)cc(OC)c1OC,62%
100%,60%,6.05,,COc1cc(C(=O)NC(=S)Nc2ccc(C)c(NC(=O)c3ccccc3)c2)cc(OC)c1OC,99%
inactive,,,,O=C(NC(=S)Nc1cccc(NC(=O)c2ccccc2)c1)c1ccc2c(c1)OCCO2,
99%,4%,,,COc1cc(C(=O)NC(=S)Nc2ccc(Cl)c(C(=O)Nc3ccc(N(C)C)cc3)c2)cc(OC)c1OC,98%
100%,10%,,,COc1ccc(NC(=O)c2cc(NC(=S)NC(=O)c3cc(OC)c(OC)c(OC)c3)ccc2Cl)cc1,88%
,,6.70,6.72,COc1cc(C(=O)NC(=N)Nc2ccc(C)c(C(=O)Nc3ccccc3)c2)cc(OC)c1OC,
97%,59%,6.30,,COc1cc(C(=O)NC(=S)Nc2ccc(C)c(NC(=O)c3ccc(Oc4ccccc4)cc3)c2)cc(OC)c1OC,99%

# Source: ChEMBL document CHEMBL2029339, “Acylthiourea, acylurea, and acylguanidine derivatives with potent hedgehog inhibiting activity” (J Med Chem, 2012)
